Results published in paper PMC12298351, “Novel 3,19-(N-Phenyl-3-(4-fluorophenyl)-pyrazole) Acetal of Andrographolide Promotes Cell Cycle Arrest and Apoptosis in MDA-MB-231 Breast Cancer Cells” (Pharmaceuticals, 2025).

How the values were obtained:
CAKI-1 = conditions: CAKI-1, Renal
U251 = conditions: U251, CNS
MDA-MB-468 = conditions: MDA-MB-468, Breast
OVCAR-3 = conditions: OVCAR-3, Ovarian
KM12 = conditions: KM12, Colon
MOLT-4 = conditions: MOLT-4, Leukemia
HCT-15 = conditions: HCT-15, Colon
HCT-116 = type: cell-based; conditions: HCT-116, Colon
SF-268 = conditions: SF-268, CNS
SF-539 = conditions: SF-539, CNS
UACC-257 = conditions: UACC-257, Melanoma
SNB-75 = conditions: SNB-75, CNS
A498 = conditions: A498, Renal
PC-3 = conditions: PC-3, Prostate
SK-MEL-28 = conditions: SK-MEL-28, Melanoma
MALME-3M = conditions: Melanoma
IGROV1 = conditions: IGROV1, Ovarian
HCC-2998 = conditions: HCC-2998, Colon
TK-10 = type: cell-based; conditions: TK-10, Renal
[1] = read-out: 50% lethal concentration (LC50)
[2] = read-out: 50% lethal concentration (LC50), Leukemia
[3] = read-out: 50% lethal concentration (LC50), Breast

## C=C1CCC2C3(C)COC(c4cn(-c5ccccc5)nc4-c4ccc(OC)cc4)OC3CCC2(C)C1CC=C1C(=O)OCC1O (centres unmarked) [1j]
HOP-92; HOP-92, Non-Small Cell Lung
  Total growth inhibition (TGI): 3.02 µM
HOP-92; HOP-92, Non-Small-Cell Lung
  GI50: 1.47 µM
HOP-92; read-out: 50% lethal concentration (LC50), HOP-92, Non-Small Cell Lung
  CC50: 6.2 µM
CAKI-1
  GI50: 1.26 µM
  Total growth inhibition (TGI): 2.64 µM
CAKI-1; [1]
  CC50: 5.54 µM
U251
  GI50: 1.66 µM
  Total growth inhibition (TGI): 3.1 µM
MDA-MB-468
  GI50: 1.71 µM
  Total growth inhibition (TGI): 3.25 µM
MDA-MB-468; [1]
  CC50: 6.16 µM
OVCAR-3
  GI50: 1.5 µM
  Total growth inhibition (TGI): 2.96 µM
OVCAR-3; [1]
  CC50: 5.84 µM
KM12
  GI50: 1.66 µM
  Total growth inhibition (TGI): 3.31 µM
HOP-62; HOP-62, Non-Small Cell Lung
  Total growth inhibition (TGI): 10.4 µM
HOP-62; HOP-62, Non-Small-Cell Lung
  GI50: 2.65 µM
HOP-62; read-out: 50% lethal concentration (LC50), HOP-62, Non-Small Cell Lung
  CC50: 86.3 µM
MOLT-4
  GI50: 1.71 µM
  Total growth inhibition (TGI): 7.57 µM
MOLT-4; [1]
  CC50: > 100 µM
HCT-15
  GI50: 1.58 µM
  Total growth inhibition (TGI): 3.37 µM
HCT-15; [1]
  CC50: 7.2 µM
LOX IMVI; Melanoma
  GI50: 1.57 µM
  Total growth inhibition (TGI): 2.93 µM
LOX IMVI; read-out: 50% lethal concentration (LC50), Melanoma
  CC50: 5.47 µM
HCT-116
  GI50: 1.4 µM
  Total growth inhibition (TGI): 3.11 µM
SF-268
  GI50: 1.67 µM
  Total growth inhibition (TGI): 3.6 µM
SF-268; [1]
  CC50: 7.77 µM
SF-539
  GI50: 1.69 µM
  Total growth inhibition (TGI): 3.1 µM
SF-539; [1]
  CC50: 5.7 µM
UACC-257
  GI50: 1.64 µM
  Total growth inhibition (TGI): 3.28 µM
HL-60(TB); Leukemia
  GI50: 1.08 µM
  Total growth inhibition (TGI): 3.96 µM
HL-60(TB); [2]
  CC50: > 100 µM
SNB-75
  GI50: 1.15 µM
  Total growth inhibition (TGI): 5.09 µM
SNB-75; [1]
  CC50: 24.4 µM
HS 578T; Breast
  GI50: 1.86 µM
  Total growth inhibition (TGI): 4.88 µM
HS 578T; [3]
  CC50: > 100 µM
ACHN; Renal
  GI50: 1.52 µM
  Total growth inhibition (TGI): 2.87 µM
ACHN; read-out: 50% lethal concentration (LC50), Renal
  CC50: 5.41 µM
EKVX; Non-Small Cell Lung
  Total growth inhibition (TGI): 4.49 µM
EKVX; Non-Small-Cell Lung
  GI50: 1.96 µM
EKVX; read-out: 50% lethal concentration (LC50), Non-Small Cell Lung
  CC50: > 100 µM
A498
  GI50: 2.63 µM
  Total growth inhibition (TGI): 11.3 µM
A498; [1]
  CC50: 39.2 µM
PC-3
  GI50: 2.18 µM
PC-3; [1]
  CC50: > 100 µM
NCI-H522; NCI-H522, Non-Small Cell Lung
  Total growth inhibition (TGI): 3.24 µM
NCI-H522; NCI-H522, Non-Small-Cell Lung
  GI50: 1.73 µM
NCI-H522; read-out: 50% lethal concentration (LC50), NCI-H522, Non-Small Cell Lung
  CC50: 6.06 µM
SR; Leukemia
  GI50: 1.74 µM
  Total growth inhibition (TGI): 5.21 µM
SR; [2]
  CC50: > 100 µM
SK-MEL-28
  GI50: 1.94 µM
  Total growth inhibition (TGI): 3.69 µM
SK-MEL-28; [1]
  CC50: 7.01 µM
MALME-3M
  GI50: 1.54 µM
  Total growth inhibition (TGI): 2.93 µM
IGROV1
  GI50: 1.37 µM
  Total growth inhibition (TGI): 2.99 µM
IGROV1; [1]
  CC50: 6.52 µM
MDA-MB-231; MDA-MB-231, Breast
  GI50: 1.47 µM
MDA-MB-231; MDA-MB-231/ATCC, Breast
  Total growth inhibition (TGI): 2.98 µM
MDA-MB-231; read-out: 50% lethal concentration (LC50), MDA-MB-231/ATCC, Breast
  CC50: 60.1 µM
T-47D; Breast
  GI50: 1.8 µM
  Total growth inhibition (TGI): 5.02 µM
T-47D; [3]
  CC50: > 100 µM
HCC-2998
  GI50: 1.7 µM
  Total growth inhibition (TGI): 3.19 µM
NCI-H460; NCI-H460, Non-Small Cell Lung
  Total growth inhibition (TGI): 3.5 µM
NCI-H460; NCI-H460, Non-Small-Cell Lung
  GI50: 1.74 µM
NCI-H460; read-out: 50% lethal concentration (LC50), NCI-H460, Non-Small Cell Lung
  CC50: 7.01 µM
TK-10
  GI50: 1.95 µM
  Total growth inhibition (TGI): 4.13 µM
TK-10; [1]
  CC50: 8.77 µM
